Reference: patent publication US11820766B2, “Monoacylglycerol lipase modulators” (Janssen Pharmaceutica NV, priority 2018, dated 2023)

These compounds were tested against T1, human MGL from HeLa cells (Homo sapiens, UniProt Q99685) (assay: In vitro MGL activity assay: [glycerol-1,3-3H]-oleyl glycerol cleavage by MGL from HeLa cells). Conditions: 300 nM [Glycerol-1,3-3H]-oleyl glycerol, one hour incubation.
T1 construct: combining endogenously expressed MGL from HeLa cells with test compounds; endogenous in cells; host or cells: HeLa cells / cell homogenates
T1 sequence (Q99685 1-303): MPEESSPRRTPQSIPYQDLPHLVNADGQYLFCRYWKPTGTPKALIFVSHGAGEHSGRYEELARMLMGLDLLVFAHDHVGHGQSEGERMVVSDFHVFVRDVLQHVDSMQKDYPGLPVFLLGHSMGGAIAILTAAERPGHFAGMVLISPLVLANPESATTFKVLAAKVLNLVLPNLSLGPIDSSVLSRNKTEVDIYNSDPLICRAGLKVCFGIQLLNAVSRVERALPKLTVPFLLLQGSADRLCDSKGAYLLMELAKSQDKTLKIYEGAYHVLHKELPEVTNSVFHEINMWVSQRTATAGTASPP
Assay type: biochemical
Excerpt: MGL is the predominant hydrolase in HeLa cells/cell homogenates.

IC50 [µM] | Structure (SMILES)
0.00463 | CC1c2nn(C(F)F)c(-c3cc(F)cc(F)c3)c2CCN1C(=O)c1ccc2ncccc2c1 (stereo not drawn) [Example 155, (2-(Difluoromethyl)-3-(3,5-difluorophenyl)-7-methyl-2,4,5,7-tetrahydro-6H-pyrazolo[3,4-c]pyridin-6-yl)(quinolin-6-yl)methanone]
0.017 | CC1c2nn(C(F)(F)F)c(-c3cc(F)cc(F)c3)c2CCN1C(=O)c1ccc2ncccc2c1 (stereo not drawn) [Example 156, (3-(3,5-Difluorophenyl)-7-methyl-2-(trifluoromethyl)-2,4,5,7-tetrahydro-6H-pyrazolo[3,4-c]pyridin-6-yl)(quinolin-6-yl)methanone]
0.0138 | [2H]C([2H])([2H])n1nc2c(c1-c1cc(F)cc(F)c1)CCN(C(=O)c1ccc3ncccc3c1)C2C (stereo not drawn) [Example 157, (3-(3,5-Difluorophenyl)-7-methyl-2-(methyl-d3)-2,4,5,7-tetrahydro-6H-pyrazolo[3,4-c]pyridin-6-yl)(quinolin-6-yl)methanone]
0.26 | CC1c2nn(C)c(-c3cc(F)cc(F)c3)c2CCN1C(=O)c1cc2ccccc2cn1 (stereo not drawn) [Example 160, (3-(3,5-Difluorophenyl)-2,7-dimethyl-2,4,5,7-tetrahydro-6H-pyrazolo[3,4-c]pyridin-6-yl)(isoquinolin-3-yl)methanone]
0.26 | CC1c2nn(C)c(-c3cc(F)cc(F)c3)c2CCN1C(=O)c1ccc2ccncc2c1 (stereo not drawn) [Example 161, (3-(3,5-Difluorophenyl)-2,7-dimethyl-2,4,5,7-tetrahydro-6H-pyrazolo[3,4-c]pyridin-6-yl)(isoquinolin-7-yl)methanone]
0.0113 | CC1c2nn(C)c(-c3cc(F)cc(F)c3)c2CCN1C(=O)c1ccc2nccc(Br)c2c1 (stereo not drawn) [Example 162, (4-Bromoquinolin-6-yl)(3-(3,5-difluorophenyl)-2,7-dimethyl-2,4,5,7-tetrahydro-6H-pyrazolo[3,4-c]pyridin-6-yl)methanone]
0.0118 | CC1c2nn(C)c(-c3cc(F)cc(F)c3)c2CCN1C(=O)c1ccc2ncccc2c1Cl (stereo not drawn) [Example 163, (5-Chloroquinolin-6-yl)(3-(3,5-difluorophenyl)-2,7-dimethyl-2,4,5,7-tetrahydro-6H-pyrazolo[3,4-c]pyridin-6-yl)methanone]
0.0384 | C[C@H]1c2nn(C)c(-c3cc(F)cc(F)c3)c2CCN1C(=O)c1cc(C(F)(F)F)c2ncccc2c1 [Example 164, (S)-(3-(3,5-Difluorophenyl)-2,7-dimethyl-2,4,5,7-tetrahydro-6H-pyrazolo[3,4-c]pyridin-6-yl)(8-(trifluoromethyl)quinolin-6-yl)methanone]
0.0251 | CC1c2nn(C)c(-c3cc(F)cc(F)c3)c2CCN1C(=O)c1ccc2nccnc2c1 (stereo not drawn) [Example 167, (3-(3,5-Difluorophenyl)-2,7-dimethyl-2,4,5,7-tetrahydro-6H-pyrazolo[3,4-c]pyridin-6-yl)(quinoxalin-6-yl)methanone]
0.0232 | C[C@H]1c2nn(C)c(-c3cc(F)cc(F)c3)c2CCN1C(=O)c1ccc2ncccc2n1 [Example 170]
0.013 | C[C@H]1c2nn(C)c(-c3cc(F)cc(F)c3)c2CCN1C(=O)c1cc2nccnc2cc1F [Example 171, (S)-(3-(3,5-Difluorophenyl)-2,7-dimethyl-2,4,5,7-tetrahydro-6H-pyrazolo[3,4-c]pyridin-6-yl)(7-fluoroquinoxalin-6-yl)methanone]
0.0159 | CC1c2nn(C)c(-c3cc(F)cc(Cl)c3)c2CCN1C(=O)c1ccc2ncccc2c1 (stereo not drawn) [Example 177, (3-(3-Chloro-5-fluorophenyl)-2,7-dimethyl-2,4,5,7-tetrahydro-6H-pyrazolo[3,4-c]pyridin-6-yl)(quinolin-6-yl)methanone]
0.00416 | C[C@H]1c2nn(C)c(-c3cc(F)cc(Cl)c3)c2CCN1C(=O)c1ccc2ncccc2c1 [Example 178, (S)-(3-(3-Chloro-5-fluorophenyl)-2,7-dimethyl-2,4,5,7-tetrahydro-6H-pyrazolo[3,4-c]pyridin-6-yl)(quinolin-6-yl)methanone]
0.593 | C[C@@H]1c2nn(C)c(-c3cc(F)cc(Cl)c3)c2CCN1C(=O)c1ccc2ncccc2c1 [Example 179, (R)-(3-(3-Chloro-5-fluorophenyl)-2,7-dimethyl-2,4,5,7-tetrahydro-6H-pyrazolo[3,4-c]pyridin-6-yl)(quinolin-6-yl)methanone]
0.0313 | CC1c2nn(C)c(-c3cc(F)cc(Cl)c3)c2CCN1C(=O)c1ccc2nccnc2c1 (stereo not drawn) [Example 180, (3-(3-Chloro-5-fluorophenyl)-2,7-dimethyl-2,4,5,7-tetrahydro-6H-pyrazolo[3,4-c]pyridin-6-yl)(quinoxalin-6-yl)methanone]
0.00637 | C[C@H]1c2nn(C)c(-c3cc(F)cc(Cl)c3)c2CCN1C(=O)c1ccc2nccnc2c1 [Example 181, (S)-(3-(3-Chloro-5-fluorophenyl)-2,7-dimethyl-2,4,5,7-tetrahydro-6H-pyrazolo[3,4-c]pyridin-6-yl)(quinoxalin-6-yl)methanone]
> 10 | C[C@@H]1c2nn(C)c(-c3cc(F)cc(Cl)c3)c2CCN1C(=O)c1ccc2nccnc2c1 [Example 182, (R)-(3-(3-Chloro-5-fluorophenyl)-2,7-dimethyl-2,4,5,7-tetrahydro-6H-pyrazolo[3,4-c]pyridin-6-yl)(quinoxalin-6-yl)methanone]

The next lines start with the compound.

Structure (SMILES) | IC50 [µM]
CCc1nc(C(=O)N2CCc3c(nn(C)c3-c3cc(F)cc(F)c3)[C@@H]2C)nn1-c1ccccc1 [Example 149, (S)-(3-(3,5-Difluorophenyl)-2,7-dimethyl-2,4,5,7-tetrahydro-6H-pyrazolo[3,4-c]pyridin-6-yl)(5-ethyl-1-phenyl-1H-1,2,4-triazol-3-yl)methanone] | 0.0119
C[C@H]1c2nn(C)c(-c3cc(F)cc(F)c3)c2CCN1C(=O)c1cccc2c1ccn2CCF [Example 150, (S)-(3-(3,5-Difluorophenyl)-2,7-dimethyl-2,4,5,7-tetrahydro-6H-pyrazolo[3,4-c]pyridin-6-yl)(1-(2-fluoroethyl)-1H-indol-4-yl)methanone] | 0.00067
C[C@H]1c2nn(C)c(-c3cc(F)cc(F)c3)c2CCN1C(=O)c1ccnc2c1ccn2CCF [Example 152, (S)-(3-(3,5-Difluorophenyl)-2,7-dimethyl-2,4,5,7-tetrahydro-6H-pyrazolo[3,4-c]pyridin-6-yl)(1-(2-fluoroethyl)-1H-pyrrolo[2,3-b]pyridin-4-yl)methanone] | 0.00163
C[C@H]1c2nn(C)c(-c3cc(F)cc(F)c3)c2CCN1C(=O)c1cnc2ccoc2c1 [Example 153, (S)-(3-(3,5-Difluorophenyl)-2,7-dimethyl-2,4,5,7-tetrahydro-6H-pyrazolo[3,4-c]pyridin-6-yl)(furo[3,2-b]pyridin-6-yl)methanone] | 0.0154
C[C@@H]1c2nn(C)c(-c3cc(F)cc(F)c3)c2CCN1C(=O)c1cnc2ccoc2c1 [Example 154, (R)-(3-(3,5-Difluorophenyl)-2,7-dimethyl-2,4,5,7-tetrahydro-6H-pyrazolo[3,4-c]pyridin-6-yl)(furo[3,2-b]pyridin-6-yl)methanone] | 6.55
C[C@H]1c2nn(C)c(-c3cc(F)cc(F)c3)c2CCN1C(=O)c1ccc2ncc(C(F)(F)F)cc2c1 [Example 165, (S)-(3-(3,5-Difluorophenyl)-2,7-dimethyl-2,4,5,7-tetrahydro-6H-pyrazolo[3,4-c]pyridin-6-yl)(3-(trifluoromethyl)quinolin-6-yl)methanone] | 0.103
C[C@H]1c2nn(C)c(-c3cc(F)cc(F)c3)c2CCN1C(=O)c1ccc2ncc(OCCF)cc2c1 [Example 166, (S)-(3-(3,5-Difluorophenyl)-2,7-dimethyl-2,4,5,7-tetrahydro-6H-pyrazolo[3,4-c]pyridin-6-yl)(3-(2-fluoroethoxy)quinolin-6-yl)methanone] | 0.0113
Cc1nc2ccc(C(=O)N3CCc4c(nn(C)c4-c4cc(Cl)cc(Cl)c4)[C@@H]3C)cc2o1 [Example 172, (S)-(3-(3,5-Dichlorophenyl)-2,7-dimethyl-2,4,5,7-tetrahydro-6H-pyrazolo[3,4-c]pyridin-6-yl)(2-methylbenzo[d]oxazol-6-yl)methanone] | 0.00489
C[C@H]1c2nn(C)c(-c3cc(Cl)cc(Cl)c3)c2CCN1C(=O)c1nn(C)c2ncccc12 [Example 173, (S)-(3-(3,5-Dichlorophenyl)-2,7-dimethyl-2,4,5,7-tetrahydro-6H-pyrazolo[3,4-c]pyridin-6-yl)(1-methyl-1H-pyrazolo[3,4-b]pyridin-3-yl)methanone] | 0.018
C[C@H]1c2nn(C)c(-c3cc(Cl)cc(Cl)c3)c2CCN1C(=O)c1ccc2ncccc2c1 [Example 174, (S)-(3-(3,5-Dichlorophenyl)-2,7-dimethyl-2,4,5,7-tetrahydro-6H-pyrazolo[3,4-c]pyridin-6-yl)(quinolin-6-yl)methanone] | 0.00262
C[C@H]1c2nn(C)c(-c3cc(Cl)cc(Cl)c3)c2CCN1C(=O)c1ccc2nccnc2c1 [Example 175, (S)-(3-(3,5-Dichlorophenyl)-2,7-dimethyl-2,4,5,7-tetrahydro-6H-pyrazolo[3,4-c]pyridin-6-yl)(quinoxalin-6-yl)methanone] | 0.00624
Cc1cnc2cc(C(=O)N3CCc4c(nn(C)c4-c4cc(Cl)cc(Cl)c4)[C@@H]3C)ccc2n1 [Example 176, (S)-(3-(3,5-Dichlorophenyl)-2,7-dimethyl-2,4,5,7-tetrahydro-6H-pyrazolo[3,4-c]pyridin-6-yl)(2-methylquinoxalin-6-yl)methanone] | 0.00849
Cc1ccc(-c2c3c(nn2C)[C@H](C)N(C(=O)c2ccc4nccnc4c2)CC3)cc1Cl [Example 183, (S)-(3-(3-Chloro-4-methylphenyl)-2,7-dimethyl-2,4,5,7-tetrahydro-6H-pyrazolo[3,4-c]pyridin-6-yl)(quinoxalin-6-yl)methanone] | 0.0269
